Patent EP4710919A1, “INJECTION PREPARATION AND PREPARATION METHOD THEREFOR, AND COMPATIBLE MEDICINAL LIQUID AND PREPARATION METHOD THEREFOR” (Ascentawits Pharmaceuticals, Ltd., priority 2023, dated 2024)

Experiments:
Assay type in all cases: physicochemical
[1] = Solubility of Compound A in single solvents (water, acidic and alkaline aqueous solutions, isopropanol, methanol) at 25°C
Procedure: The solubility of Compound A in single solvents (water, acidic and alkaline aqueous solutions, isopropanol, and methanol) was investigated. Table 1: Solubility investigation of Compound A at 25°C

[2] = Solubility of Compound A in single adjuvant solvents at 25°C (supersaturated solution, sampled every 2 hours); conditions: organic solvent or mixture, thermodynamic from solid; for solubility at 0 h / solubility at 2 h / solubility at 4 h / solubility at 6 h: single solvent
Procedure: In order to increase the concentration of the active pharmaceutical ingredient in the injection, the solubility of the active pharmaceutical ingredient in single adjuvants was investigated to screen for optimal solvents, hydrotropic agents, or solubilizers. The solubility test of Compound A in single solvents was conducted as follows: Each of the single solvents was taken, a certain amount of API (the compound of formula I) was added at 25°C and stirred, and the dissolution of the API in the solvent system was observed. If the dissolution was complete, additional API was added continuously until a supersaturated solution was obtained. Samples were taken every 2 hours, filtered and assayed for content. Table 2: Solubility data of Compound A in single solvents at 25°C

[3] = Solubility of Compound A in formulations with different adjuvants, observations before and after treatment
Source text: Compound A and Compound AST-3424 are structurally similar (both are nitrobenzyl derivatives and linked to a DNA alkylating agent with an aziridine structure that can effectively kill tumor cells). In addition, by releasing the DNA alkylating agent with an aziridine structure in tumor tissues or cells that overexpress the AKR1C3 enzyme, both compounds enable targeted recognition and treatment of any of the tumor tissues or cells that overexpress […] 1C3 (AKR1C3), and achieve the purpose of killing the tumor tissues or cells. Therefore, based on the same formulation development strategy, the inventors designed and selected an injection formulation similar to that of Compound AST-3424 (the optimal formulation of AST-3424: 10 mg/ml Compound AST-3424 + 75% ethanol + 25% propylene glycol) for use in the formulation study of Compound A.
In addition to the solvents used in the reference formulation of Compound AST-3424, absolute ethanol was employed as a commonly used and relatively safe non-aqueous solvent adjuvant for injection formulations. During the development of the product formulation, it was considered to add N,N-dimethylacetamide (DMA) or polyoxyethylene (35) castor oil (ELP) to improve solubility and facilitate the manufacturing convenience. […]

[4] = Stability of Compound A in formulations with different adjuvants at 2-8°C (HPLC content, total impurities, moisture); conditions: stored at 2-8°C for 10 days; all formulation solvent systems
Procedure: For the aforementioned treated Formulations F1 to F4, their specific formulation information is as follows ("p": the formulation obtained by adding ELP to the formulations in Table 3): • F1p: 300 mg API, 7.5 g ELP, and absolute ethanol added to 30 ml; • F2-1p: 3 g propylene glycol, 300 mg API, 7.5 g ELP, and absolute ethanol added to 30 ml; • F2-2p: 9 g propylene glycol, 300 mg API, 7.5 g ELP, and absolute ethanol added to 30 ml; • F3-1p: 1.5 g glycerin, 300 mg API, 7.5 g ELP, and absolute ethanol added to 30 ml; • F3-2p: 4.5 g glycerin, 300 mg API, 7.5 g ELP, and absolute ethanol added to 30 ml; • F4-1: 3 g DMA, 300 mg API, and absolute ethanol added to 30 ml; • F4-2: 9 g DMA, 300 mg API, and absolute ethanol added to 30 ml; • F4-3: 15 g DMA, 300 mg API, and absolute ethanol added to 30 ml.
The stability of Compound A in the aforementioned formulations was investigated. At the predetermined time points (Day 0, Day 5, Day 10), 1 ml samples were taken for HPLC analysis to detect the content, total impurities, and moisture, respectively. Table 4: Stability of Compound A in formulations with different adjuvants at 2-8°C

[5] = Compatibility and stability study of ready-to-use intravenous injections (0.02 and 1.00 mg/ml in pH-adjusted 5% glucose injection); conditions: after filtration, room temperature, indoor ambient lighting
Procedure: In order to provide compatibility information for the injection of the compound of formula I (Compound A, API) and the compatibility solutions, it is necessary to investigate the short-term stability of the injection in 5% glucose injection, a commonly used intravenous diluent. Considering that the API is instable in acidic environments, the pH of the 5% glucose injection is first adjusted to 7.4 using a sodium bicarbonate solution.
1.0 ml of 5% sodium bicarbonate injection was added to 250 ml of 5% glucose injection to adjust the pH, and mixed homogeneously. At this point, the pH of the mixed solution was approximately 8.0.
The Compound A injection (2 ml: 20 mg) was prepared with the pH-adjusted 5% glucose injection into a compatibility solution with a concentration of 0.02 mg/ml, and a compatibility solution with a concentration of 1.00 mg/ml.
0.501 ml of Compound A injection (2 ml: 20 mg) was added to a mixing bag containing 250 ml of 5% glucose injection (whose pH had been pre-adjusted using 5% sodium bicarbonate injection). The mixing bag was repeatedly inverted to ensure homogeneous mixing of the mixed solution before storage and sampling.
27.8 ml of Compound A injection (2 ml: 20 mg) was added to a mixing bag containing 250 ml of 5% glucose injection (whose pH had been pre-adjusted using 5% sodium bicarbonate injection). […]

[6] = Chiral stability study of the concentrated Compound A injection (-20±5°C, HPLC contents of A-P1 and A-P2); conditions: in its injection formulation
Procedure: (§1) Compound A is a racemic mixture containing one chiral center. Its two isomers, named A-P1 and A-P2, can be obtained by resolving Compound A. During the formulation and compatibility studies, interconversion between the chiral isomers may affect the drug safety. Therefore, it is necessary to study the chiral stability of Compound A in both its injection formulation and the compatibility drug solution of the injection formulation.
(§2) • (a) The concentrated injection formulation of Compound A (2 ml: 20 mg) was prepared according to the aforementioned confirmed Formulation F19 and its preparation method. • (b) The compatibility drug solution with a concentration of 1.00 mg/ml was prepared according to the process for preparing a compatibility solution as described in Section 5.1.
For the injection formulation of Compound A (concentrated injection), the formulation was stored under light-protected, sealed conditions at -20±5°C. Samples were taken at different time points (0 month, 1 month, 3 months), and the contents of A-P1 and A-P2 were determined using the aforementioned HPLC method for stability evaluation.

[7] = Chiral stability study of the 1.00 mg/ml compatibility drug solution of Compound A (room temperature, HPLC contents of A-P1 and A-P2); conditions: in the compatibility solution of the injection formulation
Procedure: as §1, §2
For the 1.00 mg/ml compatibility drug solution (ready-to-use injection), the solution was stored at room temperature (25°C ± 2°C) under indoor ambient lighting. Samples were taken at different time points (0 h, 2 h, 4 h, 8 h and 24 h) and the contents of A-P1 and A-P2 were determined using the aforementioned HPLC method to evaluate chiral stability. Table 27: Chiral stability study of the concentrated Compound A injection

[8] = Polyethylene glycol 400 (PEG 400)
[9] = Polyoxyethylene (35) castor oil (ELP)

O=[N+]([O-])c1ccc(C(OP(=O)(N2CC2)N2CC2)C(F)(F)F)cc1Oc1ccc(-c2ccc(F)cc2)c(F)c1 (racemic) [Compound A]
Solubility ([1]; 0.1 mol/L HCl solution, 25°C): Practically insoluble
Solubility ([1]; 0.1 mol/L NaOH solution, 25°C): Practically insoluble
Solubility ([1]; Isopropanol, 25°C): Practically insoluble
Solubility ([1]; Methanol, 25°C): Sparingly soluble
Solubility ([1]; Water, 25°C): Practically insoluble
Solubility ([1]; in water, and acidic and alkaline aqueous solutions): extremely low solubility
Solubility ([2]; N,N-dimethylacetamide (single solvent), in N,N-dimethylacetamide): > 200 mg/mL
Solubility ([2]; polyoxyethylene (35) castor oil (single solvent), in polyoxyethylene (35) castor oil): ~20 mg/mL
solubility at 0 h ([2]; Ethanol): 8.95 mg/mL
solubility at 2 h ([2]; Ethanol): 9.09 mg/mL
solubility at 4 h ([2]; Ethanol): 9.43 mg/mL
solubility at 6 h ([2]; Ethanol): 9.28 mg/mL
solubility at 0 h ([2]; N,N-Dimethylacetamide (DMA)): 248 mg/mL
solubility at 2 h ([2]; N,N-Dimethylacetamide (DMA)): 251 mg/mL
solubility at 4 h ([2]; N,N-Dimethylacetamide (DMA)): 251 mg/mL
solubility at 6 h ([2]; N,N-Dimethylacetamide (DMA)): 251 mg/mL
solubility at 0 h [2, 8]: 12.2 mg/mL
solubility at 2 h [2, 8]: 11.2 mg/mL
solubility at 4 h [2, 8]: 15.3 mg/mL
solubility at 6 h [2, 8]: 16 mg/mL
solubility at 0 h [2, 9]: 18.6 mg/mL
solubility at 2 h [2, 9]: 20.7 mg/mL
solubility at 4 h [2, 9]: 20.7 mg/mL
solubility at 6 h [2, 9]: 21.3 mg/mL
dissolution of Compound A ([3]; formulation prepared based on the formulation design of Compound AST-3424 (ethanol:propylene glycol 3:1, 300 mg in 30 ml)): cannot be completely dissolved
Solubility ([3]; mixed solvent of ethanol and propylene glycol): poorly soluble
stability with respect to content, total impurities, and moisture [4]: remained relatively stable
changes in traits, color and clarity of solution, osmotic pressure, pH value, content of Compound A, and related substances ([5]; 0.02 mg/ml compatibility solutions, within 8 hours): no significant changes
changes in traits, color and clarity of solution, osmotic pressure, pH value, and content of Compound A ([5]; 1.00 mg/ml compatibility solutions, within 6 hours): no significant changes
chiral stability [6]: chirally stable
chiral stability [7]: chirally stable
